Key:
EfpA = molecular target: T1, EfpA (Mycolicibacterium smegmatis, UniProt A0QVL8); assay: ethidium bromide efflux (fluorescence) in M. smegmatis cells; assay type: cell-based
T1 construct: gene MSMEG_2619; native efflux pump in intact M. smegmatis cells; ethidium bromide efflux read-out

Mtb's efpA homolog = Mtb's efpA homolog (Mycobacterium tuberculosis, UniProt P9WJY5); conditions: high-affinity interaction lost on efpA deletion
Mtb DNA gyrase = molecular target: T2, Mtb DNA gyrase (Mycobacterium tuberculosis, UniProt P9WG45+P9WG47); assay: DNA supercoiling/decatenation inhibition, agarose gel; assay type: biochemical
T2 construct: gene gyrA; in vitro DNA gyrase; source details in supplement
T2 sequence (P9WG45 whole entry): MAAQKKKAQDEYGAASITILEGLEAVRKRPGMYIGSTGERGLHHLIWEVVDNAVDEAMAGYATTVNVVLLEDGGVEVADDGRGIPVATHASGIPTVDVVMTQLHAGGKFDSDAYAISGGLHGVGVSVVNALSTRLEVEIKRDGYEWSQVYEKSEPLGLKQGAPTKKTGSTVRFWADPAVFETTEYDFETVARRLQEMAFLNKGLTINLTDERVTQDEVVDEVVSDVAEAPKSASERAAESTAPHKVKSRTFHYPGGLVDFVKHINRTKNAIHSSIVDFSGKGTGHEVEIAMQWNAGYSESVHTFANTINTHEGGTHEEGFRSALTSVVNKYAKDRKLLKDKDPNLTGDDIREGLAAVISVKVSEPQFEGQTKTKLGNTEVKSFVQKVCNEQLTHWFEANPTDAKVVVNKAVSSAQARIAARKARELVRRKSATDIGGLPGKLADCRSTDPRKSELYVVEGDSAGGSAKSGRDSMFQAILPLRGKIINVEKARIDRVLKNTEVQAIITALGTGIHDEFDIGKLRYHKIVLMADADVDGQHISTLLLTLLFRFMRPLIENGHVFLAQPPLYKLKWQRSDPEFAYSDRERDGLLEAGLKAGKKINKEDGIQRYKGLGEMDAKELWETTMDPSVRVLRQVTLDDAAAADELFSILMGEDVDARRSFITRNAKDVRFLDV
T2 sequence (P9WG47 2-838): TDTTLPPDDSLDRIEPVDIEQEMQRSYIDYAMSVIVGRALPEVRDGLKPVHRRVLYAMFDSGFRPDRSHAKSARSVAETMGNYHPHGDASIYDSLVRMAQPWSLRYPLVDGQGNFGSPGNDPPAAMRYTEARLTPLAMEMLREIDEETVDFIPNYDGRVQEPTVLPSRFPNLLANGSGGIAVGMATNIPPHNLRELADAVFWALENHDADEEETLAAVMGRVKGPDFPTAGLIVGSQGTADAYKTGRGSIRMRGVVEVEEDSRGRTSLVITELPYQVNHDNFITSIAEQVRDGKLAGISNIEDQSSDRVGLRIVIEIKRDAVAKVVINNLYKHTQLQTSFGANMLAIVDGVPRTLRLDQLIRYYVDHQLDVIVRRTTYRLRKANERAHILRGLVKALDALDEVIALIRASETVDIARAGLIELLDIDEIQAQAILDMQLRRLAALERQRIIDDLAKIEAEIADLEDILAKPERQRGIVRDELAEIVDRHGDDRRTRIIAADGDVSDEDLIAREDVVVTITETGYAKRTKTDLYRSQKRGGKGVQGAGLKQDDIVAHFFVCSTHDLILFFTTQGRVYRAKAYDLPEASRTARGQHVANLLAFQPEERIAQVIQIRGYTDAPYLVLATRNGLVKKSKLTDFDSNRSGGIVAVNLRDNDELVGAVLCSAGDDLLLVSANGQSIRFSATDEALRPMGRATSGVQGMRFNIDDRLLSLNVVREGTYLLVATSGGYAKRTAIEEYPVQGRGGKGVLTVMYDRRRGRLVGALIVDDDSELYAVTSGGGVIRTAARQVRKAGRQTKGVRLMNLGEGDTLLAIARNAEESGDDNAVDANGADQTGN

Mtb's efpA homolog, sequence (P9WJY5 whole entry): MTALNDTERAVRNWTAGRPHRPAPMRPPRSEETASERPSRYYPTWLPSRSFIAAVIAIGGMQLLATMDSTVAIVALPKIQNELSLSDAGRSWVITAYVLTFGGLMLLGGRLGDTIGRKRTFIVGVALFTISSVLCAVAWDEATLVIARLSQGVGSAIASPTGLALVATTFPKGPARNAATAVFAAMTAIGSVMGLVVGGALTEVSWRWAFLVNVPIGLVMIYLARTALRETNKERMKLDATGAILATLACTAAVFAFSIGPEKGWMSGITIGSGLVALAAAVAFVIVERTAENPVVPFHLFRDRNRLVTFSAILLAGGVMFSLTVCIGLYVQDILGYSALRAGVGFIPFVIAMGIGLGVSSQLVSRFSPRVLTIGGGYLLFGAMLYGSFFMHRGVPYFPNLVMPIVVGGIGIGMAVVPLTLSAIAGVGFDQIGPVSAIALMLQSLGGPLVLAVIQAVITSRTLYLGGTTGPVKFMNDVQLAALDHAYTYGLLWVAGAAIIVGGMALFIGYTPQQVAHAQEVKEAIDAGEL

## CC(C)=CC1C(C(=O)Nc2ccc(Br)cn2)C1(C)C (mixture of isomers) [BRD-8000]
EfpA
  IC50: 38 µM

## CC(C)=C[C@H]1[C@H](C(=O)Nc2cccc(Br)n2)C1(C)C [BRD-8000.2]
Mtb's efpA homolog
  interaction with M. smegmatis efpA deletion strain complemented with Mtb efpA: This highaffinity interaction is restored by episomal complementation of Mtb’s efpA homolog
EfpA
  IC50: 15 µM

## O=C1c2ccccc2-n2c1nc1ccccc1c2=O [tryptanthrin]
Mtb DNA gyrase
  DNA supercoiling/decatenation inhibition, agarose gel: we validated it to be a DNA gyrase inhibitor

## CC(C)=C[C@@H]1[C@@H](C(=O)Nc2cccc(Br)n2)C1(C)C [(R,R)-trans isomer of BRD-8000.2]
EfpA
  IC50: 500 µM
